Laboratory results reported in US7932284B2, “Indole sulfonamide modulators of progesterone receptors” (Eli Lilly and Company, priority 2006, dated 2011).

Key:
[1] = target: T1, human PR (progesterone receptor) (Homo sapiens, UniProt P06401); test: PR competition binding assay (HEK293 cell lysate); conditions: 0.29 nM 3H-methyltrienolone, 293-PR lysate
T1 construct: expressed in transfected cells; host or cells: HEK293
T1 sequence (P06401 1-933): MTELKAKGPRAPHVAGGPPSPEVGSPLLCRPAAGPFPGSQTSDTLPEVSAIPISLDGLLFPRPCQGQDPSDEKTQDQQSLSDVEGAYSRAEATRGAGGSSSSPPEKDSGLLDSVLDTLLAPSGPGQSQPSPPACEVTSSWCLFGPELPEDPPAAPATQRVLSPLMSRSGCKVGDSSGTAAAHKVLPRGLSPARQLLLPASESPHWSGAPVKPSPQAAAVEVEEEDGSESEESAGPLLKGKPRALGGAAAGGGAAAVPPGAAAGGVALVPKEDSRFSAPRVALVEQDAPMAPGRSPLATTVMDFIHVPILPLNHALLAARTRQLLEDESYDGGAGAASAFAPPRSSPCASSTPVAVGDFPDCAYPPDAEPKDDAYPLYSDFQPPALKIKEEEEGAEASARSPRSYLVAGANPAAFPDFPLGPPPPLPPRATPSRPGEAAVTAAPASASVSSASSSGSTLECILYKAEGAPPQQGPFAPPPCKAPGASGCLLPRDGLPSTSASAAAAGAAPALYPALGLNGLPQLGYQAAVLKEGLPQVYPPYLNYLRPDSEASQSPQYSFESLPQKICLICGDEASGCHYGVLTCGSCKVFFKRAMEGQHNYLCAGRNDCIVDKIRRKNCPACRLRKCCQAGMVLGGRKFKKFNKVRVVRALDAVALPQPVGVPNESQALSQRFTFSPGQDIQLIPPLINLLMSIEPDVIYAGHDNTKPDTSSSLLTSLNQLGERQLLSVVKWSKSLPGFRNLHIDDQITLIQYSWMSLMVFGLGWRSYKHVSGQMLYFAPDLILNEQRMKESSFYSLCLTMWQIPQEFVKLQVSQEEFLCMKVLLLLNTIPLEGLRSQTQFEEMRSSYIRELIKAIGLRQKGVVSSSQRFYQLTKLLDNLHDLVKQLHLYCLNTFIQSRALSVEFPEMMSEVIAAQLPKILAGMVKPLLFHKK
Protocol: (§1) Cell lysates from HEK293 cells overexpressing human GR (glucocorticoid receptor), AR (androgen receptor), MR (mineralocorticoid receptor) or PR (progesterone receptor) are used for competition binding assays to determine Ki values for compounds of interest. Briefly, competition binding assays are run in a buffer containing 20 mM HEPES, pH 7.6, 0.2 mM EDTA, 75 mM NaCl, 1.5 mM MgCl2, 20% glycerol, 20 mM sodium molybdate, 0.2 mM DTT, 20 ug/ml aprotinin, and 20 ug/ml leupeptin, using either 0.3 nM ^3H-dexamethasone for GR binding, 0.36 nM ^3H-methyltrienolone for AR binding, 0.25 nM ^3H-aldosterone for MR binding, or 0.29 nM ^3H-methyltrienolone for PR binding, and either 20 ug 293-GR lysate, 22 ug 293-AR lysate, 20 ug 293-MR lysate or 40 ug 293-PR lysate per well. Competing compounds are added at various concentrations in half-log increments. Non-specific binding is determined in the presence of 500 nM dexamethasone for GR binding, 500 nM aldosterone for MR binding, or 500 nM methyltrienolone for AR and PR binding. The binding reaction (140 μl) is incubated overnight at 4° C., then 70 μl of cold charcoal-dextran buffer (containing per 50 ml of assay buffer, 0.75 g of charcoal and 0.25 g of dextran) is added to each reaction. Plates are mixed 8 minutes on an orbital shaker at 4° C. Plates are then centrifuged at 3,000 rpm at 4° C. for 10 minutes. An aliquot of 120 μl of the mixture is transferred to another 96-well plate and 175 μl of Wallac Optiphase “Hisafe 3” scintillation fluid is added to each well. Plates are sealed and shaken vigorously on an orbital shaker. After an incubation of 2 hrs, plates are read in a Wallac Microbeta counter. […] The Kd for ^3H-dexamethasone for GR binding, ^3H-methyltrienolone for AR binding, ^3H-aldosterone for MR binding, or ^3H-methyltrienolone for PR binding, is determined by saturation binding. The IC50 values for compounds are converted to Ki using Cheng-Prusoff equation and the Kd determined by saturation binding assay.
More preferably the compounds of the present invention have PR binding value K; of <10 nM.

[2] = target: T2, human GR (glucocorticoid receptor) (Homo sapiens, UniProt P04150); test: GR competition binding assay (HEK293 cell lysate); conditions: 0.3 nM 3H-dexamethasone, 293-GR lysate
T2 construct: expressed in transfected cells; host or cells: HEK293
T2 sequence (P04150 1-777): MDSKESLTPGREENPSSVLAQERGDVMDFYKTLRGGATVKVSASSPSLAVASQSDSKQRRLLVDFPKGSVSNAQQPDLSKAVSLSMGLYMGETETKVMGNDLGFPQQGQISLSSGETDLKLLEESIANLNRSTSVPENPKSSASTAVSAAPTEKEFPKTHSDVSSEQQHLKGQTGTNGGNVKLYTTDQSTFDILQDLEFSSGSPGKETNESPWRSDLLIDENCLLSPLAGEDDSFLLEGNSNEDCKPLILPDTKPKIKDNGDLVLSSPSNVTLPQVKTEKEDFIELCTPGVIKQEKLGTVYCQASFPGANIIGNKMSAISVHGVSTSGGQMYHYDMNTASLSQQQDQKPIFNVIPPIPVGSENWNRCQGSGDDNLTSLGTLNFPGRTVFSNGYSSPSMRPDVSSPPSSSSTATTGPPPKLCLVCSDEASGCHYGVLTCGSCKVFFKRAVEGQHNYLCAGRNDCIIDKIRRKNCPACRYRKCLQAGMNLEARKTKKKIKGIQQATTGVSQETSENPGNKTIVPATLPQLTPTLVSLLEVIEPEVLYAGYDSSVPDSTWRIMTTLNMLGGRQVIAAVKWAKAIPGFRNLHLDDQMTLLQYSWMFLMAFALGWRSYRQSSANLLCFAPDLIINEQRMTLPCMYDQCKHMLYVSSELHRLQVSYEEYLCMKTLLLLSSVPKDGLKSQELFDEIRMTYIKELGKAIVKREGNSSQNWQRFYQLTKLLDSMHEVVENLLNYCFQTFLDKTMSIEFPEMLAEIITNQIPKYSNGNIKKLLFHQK
Protocol: as §1

| Ki [1] | Ki [2] | Compound |
| --- | --- | --- |
| 50 to 100 nM | > 1000 nM | CC(C)n1cc(-c2ccc3c(cnn3C)c2)c2ccc(NS(C)(=O)=O)cc21 [Example 107, N-[1-Isopropyl-3-(1-methyl-1H-indazol-5-yl)-1H-indol-6-yl]-methanesulfonamide] |
| < 50 nM | > 1000 nM | CC(C)n1cc(-c2ccc(Cl)cc2)c2ccc(NS(C)(=O)=O)cc21 [Example 36, N-[3-(4-Chloro-phenyl)-1-isopropyl-1H-indol-6-yl]-methanesulfonamide] |
| < 50 nM | > 1000 nM | CC(C)n1cc(-c2ccc(O)cc2)c2ccc(NS(C)(=O)=O)cc21 [Example 93, N-[3-(4-Hydroxy-phenyl)-1-isopropyl-1H-indol-6-yl]-methanesulfonamide] |
| < 50 nM | > 1000 nM | CC(C)n1cc(-c2ccc3c(c2)COC3=O)c2ccc(NS(C)(=O)=O)cc21 [Example 97, N-[1-Isopropyl-3-(1-oxo-1,3-dihydro-isobenzofuran-5-yl)-1H-indol-6-yl]-methanesulfonamide] |
